Legend:
PDGFRα = target: T1, PDGFRα (Homo sapiens, UniProt P16234); assay: Caliper biochemical assay, PDGFRα; details: Table 6
T1 construct: purchased Millipore 14-467 (lot 26321_ACTI)
How it was run: (§1)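 Mobility-shift readout: after EDTA quench, fluorescent peptide and product are resolved electrophoretically on a LabChip and measured by fluorescence. Reactions contain enzyme, carboxyfluorescein peptide, ATP, Mn^2+ and compound, run 3 h at 25° C; 100% inhibition control lacks enzyme.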

CSF-1R = target: T2, CSF-1R (Homo sapiens, UniProt P07333); assay: Caliper biochemical assay, CSF-1R; details: Table 6
T2 construct: purchased Invitrogen PV3249 (lot 662393N)
T2 sequence (P07333 20-972): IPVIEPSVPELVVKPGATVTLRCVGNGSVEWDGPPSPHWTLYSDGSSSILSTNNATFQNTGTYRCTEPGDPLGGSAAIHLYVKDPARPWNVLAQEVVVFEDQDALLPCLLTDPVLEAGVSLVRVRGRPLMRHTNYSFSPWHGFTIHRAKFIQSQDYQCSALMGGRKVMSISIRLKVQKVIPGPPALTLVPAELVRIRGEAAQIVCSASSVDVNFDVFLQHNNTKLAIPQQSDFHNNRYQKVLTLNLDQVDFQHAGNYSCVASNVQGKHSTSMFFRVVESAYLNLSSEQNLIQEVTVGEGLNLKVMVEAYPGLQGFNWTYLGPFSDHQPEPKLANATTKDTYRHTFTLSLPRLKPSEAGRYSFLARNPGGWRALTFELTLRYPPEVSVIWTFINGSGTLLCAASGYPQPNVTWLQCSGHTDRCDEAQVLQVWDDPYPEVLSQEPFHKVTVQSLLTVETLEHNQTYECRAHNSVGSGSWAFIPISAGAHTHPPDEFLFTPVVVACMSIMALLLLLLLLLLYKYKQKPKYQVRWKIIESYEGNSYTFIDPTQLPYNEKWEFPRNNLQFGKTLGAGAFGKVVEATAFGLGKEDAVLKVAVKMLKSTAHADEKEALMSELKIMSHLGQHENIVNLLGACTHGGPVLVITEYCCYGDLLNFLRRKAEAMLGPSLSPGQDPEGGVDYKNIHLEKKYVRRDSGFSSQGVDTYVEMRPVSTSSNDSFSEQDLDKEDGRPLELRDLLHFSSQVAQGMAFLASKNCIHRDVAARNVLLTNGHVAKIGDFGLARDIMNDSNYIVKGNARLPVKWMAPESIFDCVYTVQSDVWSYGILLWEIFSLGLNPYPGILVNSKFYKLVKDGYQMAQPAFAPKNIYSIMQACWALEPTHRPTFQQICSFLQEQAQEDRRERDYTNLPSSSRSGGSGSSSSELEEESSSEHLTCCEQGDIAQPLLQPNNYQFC
How it was run: as §1

[1] = system: KIT phosphorylation in M-07e cells; assay: Cell-based KIT phosphorylation in M-07e cells by pKIT ELISA; parameters: species or system human; details: SCF stimulation
Protocol: Exemplary compounds were tested for ability to inhibit KIT phosphorylation using M-07e cells as monitored by pKIT ELISA. M-07e cells are also represented as M-07E, M-07e, M07-e, M07e, Mo7e, MO7e, M07E and MO7E. Assay procedures and results are described below.
Part I—Procedures for Determining KIT Inhibition inM-07e Cells Using pKTT ELISA Reagents and consumables: • M-07e cells: Initially obtained from Accegen, cat #ABC-TC1313 • p-cKIT Capture ELISA antibody: anti-Human Phospho-CD117/c-kit, R&D cat #DYC3527-5 • Anti-pY-HIRP antibody: R&D cat #DYC3527-5 • 25× wash buffer: Quantikine ELISA Wash Buffer 1, R&D cat #WA126 • PBS: R&D cat #DY006 • 96 well ELISA plates: Clear Polystyrene Microplates, R&D Cat #DY990 • 96 well Tissue culture plates: Corning® 96 Well TC-Treated Microplates, cat #CLS3894 • RPMI medium: ATCC® RPMI-1640 Medium, Cat #30-2001 • FBS: Fetal Bovine Serum, certified, United States Gibco, Thermo-Fisher 16000044 • GM-CSF: Recombinant Human GM-CSF Protein, R&D cat #215-GM • SCF: Recombinant Human SCF Protein, R&D cat #255-SC
• 1. Prepare cells: • a. Culture M-07e cells in RPMI medium+20% serum+GM-CSF+penstrep • To make 50 mL of growth medium • i. 40 mL RPMI media • ii. 10 mL FBS • iii. 10 uL of GM-CSF (100 ug/mL stock) • iv. 0.5 mL pen strep (100×) • b. Harvest cells • c. Re-suspend cells in 100% RPMI media (without serum) to final concentration of 1 million cells/mL • d. Transfer 100 uL of cell solution to 11 columns of a 96 well flat bottom cell culture plate • e. Incubate cells over night at 37 C • 2. Prepare ELISA Plates: • a. Dilute capture antibody to concentration 4 ug/mL in PBS • b. Coat 96 well microplates with 100 uL of capture antibody • c. Seal plates and incubate at RT overnight • d. Wash plates with 300 uL of wash buffer • e. Repeat wash • f. Treat plates with 300 uL of blocking buffer at RT for 1 hour • 3. Addition of compounds: • a. Prepare compound dilutions in RPMI media • i. Top test concentration is 1 uM • ii. Serially dilute compounds 3× for a total of 8 concentrations • b. Add 10 uL of 10× compound dilutions to cells • i. No compounds added in column 11 (for controls) • c. Incubate cells with compounds for 2 hours at 37 C • d. Stimulate cells with SCF for 5 min at concentration of 100 ng/mL (final) • i. In column 11 stimulate top 4 wells. Leave bottom 4 wells unstimulated • e. Remove cell culture media with multichannel pipet • f. Add 110 uL of Lysis buffer to all wells • g. Incubate plates at RT for 30 min while shaking • 4. Transfer 100 uL of cell lysis to each prepared Elisa plate • 5. Add 100 uL of the standard pc-KIT dilutions to the standard wells in column 12 • a. Top concentration=2000 pg/mL • b. 2× dilutions • 6. Incubate ELISA plate with cell lysate for 2 hours at RT • 7. Wash Plate with wash buffer (wash 1) • 8. Repeat wash (wash 2) • 9. […] Add 100 uL of diluted anti-pY-HRP (1/1000 dilution in detection antibody dilution buffer) and incubate 2 hours at RT • 11. Wash plate with wash buffer (wash 1) • 12. Repeat wash (wash 2) • 13. Repeat wash (wash 3) • 14. Add 100 uL of substrate solution to each well • 15. Incubate plates 20 min • Note: Plate development is indicated by aqua color • 16. Add 50 uL of stop solution to each well • 17. Determine optical density on Bitek Synergy Neo2: • a. Make new experiment
Select absorbance 1 set to 450 nm

wtKIT [2] = target: T3, wtKIT (Homo sapiens, UniProt P10721); assay: Caliper biochemical assay, wtKIT; details: Table 6, read-out: KIT Biochemical IC50 avg
T3 construct: 1888289AM in the reaction mixtures
T3 sequence (P10721 26-976): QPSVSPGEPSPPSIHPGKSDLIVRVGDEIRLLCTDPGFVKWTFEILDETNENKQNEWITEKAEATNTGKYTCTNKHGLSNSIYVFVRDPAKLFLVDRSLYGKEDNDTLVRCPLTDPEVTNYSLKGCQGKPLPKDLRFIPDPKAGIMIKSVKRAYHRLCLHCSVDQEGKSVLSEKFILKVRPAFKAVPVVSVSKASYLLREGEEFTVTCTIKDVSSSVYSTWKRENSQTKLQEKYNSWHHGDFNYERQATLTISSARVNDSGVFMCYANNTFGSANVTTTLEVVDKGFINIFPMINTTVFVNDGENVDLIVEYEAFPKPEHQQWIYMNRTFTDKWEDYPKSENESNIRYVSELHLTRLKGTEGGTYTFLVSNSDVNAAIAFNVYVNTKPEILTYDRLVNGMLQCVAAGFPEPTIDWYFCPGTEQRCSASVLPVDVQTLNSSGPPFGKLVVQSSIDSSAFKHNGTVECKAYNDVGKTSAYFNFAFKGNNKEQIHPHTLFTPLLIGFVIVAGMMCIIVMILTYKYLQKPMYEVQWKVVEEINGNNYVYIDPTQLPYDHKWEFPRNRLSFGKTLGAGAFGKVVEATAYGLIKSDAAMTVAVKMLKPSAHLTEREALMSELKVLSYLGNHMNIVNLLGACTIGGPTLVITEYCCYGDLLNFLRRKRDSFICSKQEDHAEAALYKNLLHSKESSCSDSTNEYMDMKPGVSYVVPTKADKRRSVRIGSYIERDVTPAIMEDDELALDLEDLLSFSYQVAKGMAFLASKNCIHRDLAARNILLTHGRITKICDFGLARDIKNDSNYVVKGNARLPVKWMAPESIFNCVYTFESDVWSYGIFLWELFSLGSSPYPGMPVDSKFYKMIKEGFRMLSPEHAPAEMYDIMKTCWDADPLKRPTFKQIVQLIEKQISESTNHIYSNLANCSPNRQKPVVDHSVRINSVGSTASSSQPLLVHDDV
How it was run: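 Mobility-shift read-out: after EDTA stop, fluorescent peptide substrate and product resolved electrophoretically on LabChip 3000. Reaction ran 3 h at 25° C with 400 μM ATP, Mn^2+ cofactor, 5.0 nM wtKIT, 1 μM FAM-peptide, pH 7.5 HEPES buffer; no-enzyme wells defined full inhibition.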

Kinetic solubility assay = assay type: physicochemical; details: kinetic solubility, 50 mM PB (pH 7.4), shaken 24 hours at RT
How it was run: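 Concentration in the filtrate was determined by UPLC-UV or HPLC-UV with a standard curve. Before that, compound (10 mM DMSO stock) in 50 mM PB at pH 7.4 was agitated 24 h at room temperature, then PTFE-filtered with centrifugation.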

[3] = target: T4, BCRP (BCRP-MDCKII monolayer) (Homo sapiens, UniProt Q9UNQ0); assay: MDCKII-BCRP bidirectional transport assay; assay type: in vitro ADME; details: for MDCK-BCRP: Papp A-B: apical to basolateral
T4 construct: host or cells: MDCKII (canine kidney) cells
T4 sequence (Q9UNQ0 1-655): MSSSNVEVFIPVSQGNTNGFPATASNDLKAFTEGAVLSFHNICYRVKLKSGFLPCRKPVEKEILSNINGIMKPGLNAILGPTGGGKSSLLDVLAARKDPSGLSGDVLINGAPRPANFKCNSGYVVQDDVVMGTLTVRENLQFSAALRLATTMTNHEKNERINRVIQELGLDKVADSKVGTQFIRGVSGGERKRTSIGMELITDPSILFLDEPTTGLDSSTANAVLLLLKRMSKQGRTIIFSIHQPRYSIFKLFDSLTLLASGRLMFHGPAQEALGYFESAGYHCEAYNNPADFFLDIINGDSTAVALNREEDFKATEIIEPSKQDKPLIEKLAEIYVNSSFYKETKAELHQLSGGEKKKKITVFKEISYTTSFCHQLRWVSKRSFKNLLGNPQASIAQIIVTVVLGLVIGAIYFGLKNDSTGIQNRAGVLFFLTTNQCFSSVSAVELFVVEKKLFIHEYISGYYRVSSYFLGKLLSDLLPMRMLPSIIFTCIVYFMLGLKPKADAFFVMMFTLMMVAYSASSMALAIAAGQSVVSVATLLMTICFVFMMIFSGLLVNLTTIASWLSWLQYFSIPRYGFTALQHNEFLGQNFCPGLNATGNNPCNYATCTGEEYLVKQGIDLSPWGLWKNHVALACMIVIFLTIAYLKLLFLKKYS
How it was run: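 Efflux ratios were derived from Papp values, alongside recovery, with compounds quantified by LC-MS/MS. Both directions were tested in duplicate across BCRP-MDCKII monolayers used on days 12–15. Incubation ran 120 min at 37° C, 5% CO2, after a 15 min preincubation in assay buffer.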

wtKIT [4] = target: T3, wtKIT; assay: HTRF biochemical assay, wtKIT (phosphorylation of a peptide substrate); details: Table 4
How it was run: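 HTRF read-out of FAM-peptide (1 µM) phosphorylation after anti-phosphotyrosine antibody addition and EDTA quench. Reaction: 5.0 nM wtKIT, 400 µM ATP, 10 mM Mn2+, HEPES pH 7.5, 1% DMSO, 3 h, 25 °C; optional enzyme-compound preincubation; enzyme level set for 10-20% conversion.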

T1 sequence (P16234 24-1089): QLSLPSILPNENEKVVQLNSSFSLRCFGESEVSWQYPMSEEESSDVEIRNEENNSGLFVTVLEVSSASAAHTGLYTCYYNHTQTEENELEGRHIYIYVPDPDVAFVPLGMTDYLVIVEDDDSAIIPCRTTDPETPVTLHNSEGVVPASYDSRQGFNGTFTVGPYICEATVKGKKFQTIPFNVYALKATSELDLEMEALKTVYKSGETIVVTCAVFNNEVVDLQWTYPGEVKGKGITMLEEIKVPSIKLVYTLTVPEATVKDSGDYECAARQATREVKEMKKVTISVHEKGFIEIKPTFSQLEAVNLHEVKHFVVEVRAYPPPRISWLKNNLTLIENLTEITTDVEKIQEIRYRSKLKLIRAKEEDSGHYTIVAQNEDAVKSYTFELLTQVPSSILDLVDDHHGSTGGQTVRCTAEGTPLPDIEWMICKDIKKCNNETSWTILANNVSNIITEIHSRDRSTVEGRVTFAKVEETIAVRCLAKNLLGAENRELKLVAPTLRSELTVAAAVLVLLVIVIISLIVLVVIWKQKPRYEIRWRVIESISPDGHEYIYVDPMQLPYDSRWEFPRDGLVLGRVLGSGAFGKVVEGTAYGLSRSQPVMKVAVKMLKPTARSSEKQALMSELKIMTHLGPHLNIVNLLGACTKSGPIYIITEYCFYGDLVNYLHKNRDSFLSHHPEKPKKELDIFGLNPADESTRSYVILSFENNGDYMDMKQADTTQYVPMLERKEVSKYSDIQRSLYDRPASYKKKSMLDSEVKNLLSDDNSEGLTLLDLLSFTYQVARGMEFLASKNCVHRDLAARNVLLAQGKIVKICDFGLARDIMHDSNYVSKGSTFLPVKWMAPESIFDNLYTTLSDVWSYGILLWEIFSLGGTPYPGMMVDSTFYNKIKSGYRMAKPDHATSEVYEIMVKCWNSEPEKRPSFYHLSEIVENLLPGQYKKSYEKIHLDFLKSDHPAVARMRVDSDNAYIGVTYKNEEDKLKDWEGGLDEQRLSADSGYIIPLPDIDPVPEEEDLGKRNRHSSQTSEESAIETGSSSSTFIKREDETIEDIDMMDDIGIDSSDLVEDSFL

Structure (SMILES) | IC50 (PDGFRα) | IC50 (CSF-1R) | IC50 [1] | IC50 (wtKIT [2]) | Solubility (μM) (Kinetic solubility assay) | MDCK-BCRP: Efflux Ratio [3] | MDCK-BCRP: Papp A-B [3] | IC50 (wtKIT [4])
Cc1ccc(-c2noc(C3CC3(C)C)n2)cc1NC(=O)c1cnc2ccccn12 (stereo not drawn) [Compound I-127] | 50 to 500 nM | ≤ 50 nM | ≤ 50 nM | ≤ 50 nM |  |  |  | 
COCc1ccn2c(C(=O)Nc3cc(-c4noc(C5CN(C(=O)OC)C5)n4)ccc3C)cnc2c1 [Compound I-140] | 5000 to 30000 nM | 50 to 500 nM | 50 to 500 nM | ≤ 50 nM | *** (a solubility greater than 2 μM and less than or equal to 10 μM) |  |  | 
Cc1ccc(-c2noc(C[C@@H](C)O)n2)cc1NC(=O)c1cnc2cc(C(F)F)ccn12 [Compound I-83] |  |  | ≤ 50 nM |  | **** (a solubility less than or equal to 2 μM) | 25.3 | 0.96 10^−6 cm/s | 
O=C(Nc1cc(-c2noc([C@@H]3CC(F)(F)CN3)n2)ccc1Cl)c1cnc2ccccn12 [Compound I-221] | 5000 to 30000 nM | 50 to 500 nM | 50 to 500 nM | ≤ 50 nM | **** (a solubility less than or equal to 2 μM) |  |  | 50 to 500 nM
Cc1ccc(-c2noc(C[C@H](C)O)n2)cc1NC(=O)c1cnc2cc(C(F)F)ccn12 [Compound I-82] |  |  | 50 to 500 nM |  | **** (a solubility less than or equal to 2 μM) |  |  | 
COC(=O)N1CC(c2nc(-c3ccc(C)c(NC(=O)c4cnc5cc(OC(C)(C)CO)ccn45)c3)no2)C1 [Compound I-228] | 50 to 500 nM | ≤ 50 nM |  | ≤ 50 nM | ** (a solubility greater than 10 μM and less than or equal to 50 μM) | 22.9 | 1.08 10^−6 cm/s | 50 to 500 nM
Cc1nc(-c2ccc(C)c(NC(=O)c3cnn4ccccc34)c2)no1 [Compound I-428] | 500 to 5000 nM | 500 to 5000 nM | ≤ 50 nM | ≤ 50 nM |  |  |  | 
Cc1ccc(-c2noc([C@@H]3CCN3S(=O)(=O)c3cccnc3)n2)cc1NC(=O)c1cnc2ccccn12 [Compound I-185] | 50 to 500 nM | ≤ 50 nM | ≤ 50 nM | ≤ 50 nM | **** (a solubility less than or equal to 2 μM) |  |  | 
Cc1ccc(-c2noc([C@@H]3CC4(CC4)CN3)n2)cc1NC(=O)c1cnc2ccccn12 [Compound I-230] | 50 to 500 nM | ≤ 50 nM | ≤ 50 nM | ≤ 50 nM | ** (a solubility greater than 10 μM and less than or equal to 50 μM) |  |  | ≤ 50 nM
COC(=O)N1CC(c2nc(-c3ccc(C#N)c(NC(=O)c4cnc5ccccn45)c3)no2)C1 [Compound I-212] |  |  | 50 to 500 nM | 50 to 500 nM | *** (a solubility greater than 2 μM and less than or equal to 10 μM) |  |  | 50 to 500 nM
COC(=O)N1CC(c2nc(-c3ccc(C)c(NC(=O)c4cnc5cc(OCC(C)(C)O)ccn45)c3)no2)C1 [Compound I-261] | 50 to 500 nM | ≤ 50 nM | ≤ 50 nM | ≤ 50 nM | ** (a solubility greater than 10 μM and less than or equal to 50 μM) |  |  | ≤ 50 nM
Cc1ccc(-c2noc(N3CCC(F)(F)CC3)n2)cc1NC(=O)c1cnc2ccccn12 [Compound I-214] |  |  | 50 to 500 nM | ≤ 50 nM | *** (a solubility greater than 2 μM and less than or equal to 10 μM) |  |  | 50 to 500 nM
Cc1ccc(-c2noc([C@@H]3CCN3S(=O)(=O)c3cn(C)cn3)n2)cc1NC(=O)c1cnc2ccccn12 [Compound I-184] | 500 to 5000 nM | 50 to 500 nM | 500 to 5000 nM | ≤ 50 nM | **** (a solubility less than or equal to 2 μM) |  |  | 
CCCS(=O)(=O)N1CCC1c1nc(-c2ccc(C)c(NC(=O)c3cnc4ccccn34)c2)no1 (stereo not drawn) [Compound I-242] |  |  | 50 to 500 nM | ≤ 50 nM | *** (a solubility greater than 2 μM and less than or equal to 10 μM) |  |  | ≤ 50 nM

Source: patent US20240254119A1 (THIRD HARMONIC BIO, INC., priority 2022, published 2024)
